Consider four compounds from ChEMBL document CHEMBL1159353, “New stigmastane sterols from Ajuga salicifolia” (J Nat Prod, 2003).

The term IC50 denotes the concentration that gives 50% inhibition. Read a high IC50 as weaker potency.

One test has as its system Jurkat. The test can be described thus: Cytotoxicity against human Jurkat cells at 20 ug/ml. It counts as functional, cell-based.
The next test deals with KB. The test can be described thus: Cytotoxicity against human KB cells. It counts as functional, cell-based.

Converted amounts (≈) assume the structure as drawn. The source made the active and inactive calls. The calls are words filed in the database; no cut-off is given here.

For the compound `CC[C@H]1[C@H](O)[C@H]([C@@H](C)[C@@]2(O)[C@@H](O)C[C@H]3C4=CC[C@H]5C[C@@H](O[C@@H]6O[C@H](COC(C)=O)[C@@H](O)[C@H](O)[C@H]6O)CC[C@]5(C)[C@H]4CC[C@@]32C)O[C@]1(C)COC(C)=O`, the result in the test with Jurkat was inactive. For the compound `CC[C@H]1[C@H](O)[C@H]([C@@H](CO)[C@@]2(O)[C@@H](O)C[C@H]3C4=CC[C@H]5C[C@@H](O[C@@H]6O[C@H](CO)[C@@H](O)[C@H](O)[C@H]6O)CC[C@]5(C)[C@H]4CC[C@@]32C)O[C@]1(C)CO` [AJUGASALICIOSIDE F], in the test with KB, the IC50 was 13 µg/mL (≈ 19.4 µM). Further, in the test on Jurkat, the result was inactive. As for `CC[C@H]1C[C@H]([C@@H](C)C2[C@@H](O)C[C@H]3C4=CC[C@H]5C[C@@H](O[C@@H]6O[C@H](CO)[C@@H](O)[C@H](O)[C@H]6O[C@@H]6O[C@H](CO)[C@@H](O)[C@H](O)[C@H]6O)CC[C@]5(C)[C@H]4CC[C@]23C)O[C@]1(C)CO[C@@H]1O[C@H](CO)[C@@H](O)[C@H](O)[C@H]1O[C@@H]1O[C@H](CO)[C@@H](O)[C@H](O)[C@H]1O` (stereo partly specified), the outcome in the test with Jurkat was inactive. The compound `CC[C@H]1[C@H](O)[C@H]([C@@H](CO)[C@@]2(O)[C@@H](O)C[C@H]3C4=CC[C@H]5C[C@@H](O)CC[C@]5(C)[C@H]4CC[C@@]32C)O[C@]1(C)CO` [AJUGASALICIGENIN] showed an IC50 in the test on KB of 1 µg/mL (≈ 1.97 µM). Moreover, the outcome in the test with Jurkat was inactive.
